Assays:
Assay type in all cases: binding
[1] = target: T1, CCR6 (Homo sapiens, UniProt P51684); experiment: NanoBRET screen HiBiT-CCR6 in HEK293
T1 construct: purchased Promega (in-house HiBiT-GPCR construct library, NanoBRET)
T1 sequence (P51684 1-374): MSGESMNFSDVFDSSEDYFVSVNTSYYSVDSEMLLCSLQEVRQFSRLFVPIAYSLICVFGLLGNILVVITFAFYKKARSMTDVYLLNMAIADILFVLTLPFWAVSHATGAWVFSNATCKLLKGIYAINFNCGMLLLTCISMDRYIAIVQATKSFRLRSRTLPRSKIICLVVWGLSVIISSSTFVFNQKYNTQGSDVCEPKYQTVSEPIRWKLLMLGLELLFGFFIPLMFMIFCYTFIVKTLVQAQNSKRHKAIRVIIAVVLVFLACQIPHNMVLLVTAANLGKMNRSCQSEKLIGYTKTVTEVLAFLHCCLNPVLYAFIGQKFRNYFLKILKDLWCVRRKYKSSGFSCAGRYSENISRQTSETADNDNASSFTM
Experimental: (§1) Each tracer candidate was screened across the entire library of HiBiT-GPCR constructs using NanoBRET as the detection modality. As depicted in Figure 4A, the specificity of interactions was evaluated through decrease in BRET due to competitive displacement of a bound tracer by excess parental compound. Each tracer was analyzed for binding to each HiBiT-GPCR fusion in the absence and in the presence of competing parental compound. Briefly, HEK293 cells were transfected with HiBiT-GPCR constructs diluted into promoterless DNA to reduce expression and maximize translocation to the cell surface. Each tracer candidate was then screened at concentrations of 1 μM and 0.1 μM across cells expressing these fusions. Cells were treated for 1.5 h with tracer either alone or in the presence of 20 μM competing parental compound (i.e., control). BRET was measured upon addition of purified LgBiT and subsequent complementation with HiBiT genetically fused to a GPCR. The specificity of interactions was assessed through a decrease in BRET signal due to competitive displacement of the bound tracer. To further gauge the robustness of these interactions, the fold response over the control (i.e., BRETtracer/BRETcontrol) was calculated. We chose a 1.5-fold response, which translates to ≥7-fold signal over noise as the minimal threshold required to score an interaction as positive. […]. Below we highlight the screening results obtained for our exemplary fluorescent tracers based on Clozapine, Amitriptyline and AZD1283.
(§2) HiBiT-GPCR DNA constructs were diluted in 10 mM Tris pH 8 to a final concentration of 0.01 μg/μL, arrayed in 96-well plates and stored at −20 °C. For transfection, HEK293 cells were suspended in Opti-MEM (without phenol red) supplemented with 2% fetal bovine serum (Seradigm) and 100 units/mL penicillin–streptomycin (Gibco) at a final concentration of 220,000 cells/mL and dispensed into white 96-well plates at 90 μL/well. Subsequent transfections and screens were carried using an Agilent Bravo Automated Liquid Handling Platform. First, the 96-well HiBiT DNA arrays were diluted 25-fold in Opti-MEM (without serum or phenol red) to a final concentration of 0.0004 μg/μL and 20 μL of the diluted DNAs were transferred into new 96-well plates. Next, promoterless carrier DNA (1 μg/μL) was diluted 25-fold (0.04 μg/μL) and then dispensed into the diluted arrays at 20 μL/well. Following brief mixing, Viafect transfection reagent (Promega) diluted 16-fold into Opti-MEM was dispensed into the plates at 40 μL/well. After mixing by pipetting, plates were incubated for 10 min on the pipetting station deck. The DNA-transfection reagent complexes were then added to plates containing cells. To facilitate the screen, 10 μL of DNA-transfection reagent complexes were added in duplicates to the top 4 and bottom 4 rows, resulting in two identical 48-well arrays per plate. Plates with transfected cells were incubated for 18–20 h at 37 °C/5% CO2. A screen of each tracer across the entire library using two different concentrations requires duplicate plates of transfected cells. Depending on the number of tracers being screened, transfections can be scaled up using the same ratios. The next day, for each tracer, four 20× screening solutions in tracer dilution buffer (Promega) were prepared: two duplicates at final concentration of 20 μM and two duplicates at a final concentration of 2 μM. A competing unmodified compound was added to one of each duplicate at a final concentration of 400 μM. The four resulting solutions were diluted 4-fold in Opti-MEM without serum or phenol red to generate 5× solutions (5 µM and 0.5 µM tracer +/− 100 μM competing compound). To screen the library, a BioTek MultiFlo FX liquid dispenser was used to dispense 22.5 µL of tracer solution to the top 4 rows and 22.5 µL tracer + competing compound solution to the 4 bottom rows. Plates were briefly mixed on an orbital shaker and incubated for 1.5 h at room temperature. […]

[2] = target: T2, CXCR2 (Homo sapiens, UniProt P25025); experiment: NanoBRET screen HiBiT-CXCR2 in HEK293
T2 construct: purchased Promega (in-house HiBiT-GPCR construct library, NanoBRET)
T2 sequence (P25025 1-360): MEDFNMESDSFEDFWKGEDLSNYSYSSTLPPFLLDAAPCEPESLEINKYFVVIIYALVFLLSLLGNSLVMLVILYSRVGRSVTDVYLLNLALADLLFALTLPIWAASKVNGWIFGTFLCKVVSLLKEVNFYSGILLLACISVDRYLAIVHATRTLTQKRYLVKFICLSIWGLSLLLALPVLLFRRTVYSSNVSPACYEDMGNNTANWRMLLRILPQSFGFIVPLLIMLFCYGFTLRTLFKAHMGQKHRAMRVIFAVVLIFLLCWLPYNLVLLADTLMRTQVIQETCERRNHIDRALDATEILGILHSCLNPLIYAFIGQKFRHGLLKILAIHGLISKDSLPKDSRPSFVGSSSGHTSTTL
Experimental: as §1, §2

[3] = target: T3, GRM8 (Homo sapiens, UniProt O00222); experiment: NanoBRET screen HiBiT-GRM8 in HEK293; conditions: GRM8
T3 construct: purchased Promega (in-house HiBiT-GPCR construct library, NanoBRET)
T3 sequence (O00222 34-908): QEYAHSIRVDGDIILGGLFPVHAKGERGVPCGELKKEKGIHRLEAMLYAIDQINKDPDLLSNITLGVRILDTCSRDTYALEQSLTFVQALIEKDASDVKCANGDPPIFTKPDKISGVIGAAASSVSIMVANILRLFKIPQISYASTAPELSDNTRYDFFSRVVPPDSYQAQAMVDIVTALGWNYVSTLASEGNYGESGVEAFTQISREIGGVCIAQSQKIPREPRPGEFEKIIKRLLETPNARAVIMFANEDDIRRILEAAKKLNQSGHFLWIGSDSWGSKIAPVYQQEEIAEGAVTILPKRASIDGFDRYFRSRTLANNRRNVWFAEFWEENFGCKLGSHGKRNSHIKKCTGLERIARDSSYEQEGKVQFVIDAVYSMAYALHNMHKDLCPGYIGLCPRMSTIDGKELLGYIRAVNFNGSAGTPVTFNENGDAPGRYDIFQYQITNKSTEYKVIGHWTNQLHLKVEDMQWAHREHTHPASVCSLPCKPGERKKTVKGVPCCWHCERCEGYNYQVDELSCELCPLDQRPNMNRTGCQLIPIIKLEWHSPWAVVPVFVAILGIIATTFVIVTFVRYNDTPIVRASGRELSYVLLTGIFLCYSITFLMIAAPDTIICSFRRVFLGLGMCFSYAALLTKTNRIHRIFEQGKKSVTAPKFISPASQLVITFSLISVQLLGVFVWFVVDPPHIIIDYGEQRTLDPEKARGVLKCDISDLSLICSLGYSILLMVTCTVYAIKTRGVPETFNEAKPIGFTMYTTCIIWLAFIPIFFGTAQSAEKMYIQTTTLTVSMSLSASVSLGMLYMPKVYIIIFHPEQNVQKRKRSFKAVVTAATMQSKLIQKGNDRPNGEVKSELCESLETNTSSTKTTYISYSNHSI
Experimental: as §1, §2

[4] = tracer at 0.1μM, listed as amitriptyline-b-2-NB590
[5] = tracer at 1μM, listed as amitriptyline-b-2-NB590

CN1CCN(C2=Nc3cc(Cl)ccc3Nc3ccc(CNC(=O)CCOCCOCCOCCOCCNC(=O)CCc4ccc5n4[B-](F)(F)[N+]4=C(c6ccc[nH]6)C=CC4=C5)cc32)CC1 [Clozapine-b-2-NB590]
NanoBRET Fold Response ([1]; CCR6, 0.1μM tracer): 1.03 | NanoBRET Fold Response ([1]; CCR6, 1μM tracer): 0.97 | NanoBRET Fold Response ([2]; CXCR2, 0.1μM tracer): 0.98 | NanoBRET Fold Response ([2]; CXCR2, 1μM tracer): 1.06 | NanoBRET Fold Response ([3]; 0.1μM tracer): 1.01 | NanoBRET Fold Response ([3]; 1μM tracer): 1.02

CN(C)CCC=C1c2ccccc2CCc2ccc(C(=O)NCCNC(=O)CCOCCOCCOCCOCCNC(=O)CCc3ccc4n3[B-](F)(F)[N+]3=C(c5ccc[nH]5)C=CC3=C4)cc21 [Amitriptyline-b-2-NB590]
NanoBRET Fold Response [1, 4]: 1.01 | NanoBRET Fold Response [1, 5]: 1.01 | NanoBRET Fold Response [2, 4]: 0.97 | NanoBRET Fold Response [2, 5]: 0.83 | NanoBRET Fold Response ([3]; tracer 0.1μM): 1.01 | NanoBRET Fold Response ([3]; tracer 1μM): 0.99

CCOC(=O)c1cc(C#N)c(N2CCC(C(=O)NS(=O)(=O)Cc3ccccc3/C=C/C(=O)NCCNC(=O)CCc3ccc4n3[B-](F)(F)[N+]3=C(c5ccc[nH]5)C=CC3=C4)CC2)nc1C [AZD1283-1-NB590]
NanoBRET Fold Response ([1]; CCR6, 0.1μM): 1.06 | NanoBRET Fold Response ([1]; CCR6, 1μM): 1.08 | NanoBRET Fold Response ([2]; CXCR2, 0.1μM): 0.99 | NanoBRET Fold Response ([2]; CXCR2, 1μM): 1.03 | NanoBRET Fold Response ([3]; 0.1μM): 0.99 | NanoBRET Fold Response ([3]; 1μM): 1.01

CC(C)N(CC[C@H](c1ccccc1)c1cc(CCNC(=O)CCOCCOCCOCCOCCNC(=O)CCc2ccc3n2[B-](F)(F)[N+]2=C(c4ccc[nH]4)C=CC2=C3)ccc1O)C(C)C [Tolterodine-2-NB590]
NanoBRET Fold Response ([1]; CCR6, tracer 0.1μM): 1.07 | NanoBRET Fold Response ([1]; CCR6, tracer 1μM): 1.01 | NanoBRET Fold Response ([2]; CXCR2, tracer 0.1μM): 0.96 | NanoBRET Fold Response ([2]; CXCR2, tracer 1μM): 0.98 | NanoBRET Fold Response ([3]; tracer 0.1μM): 1.00 | NanoBRET Fold Response ([3]; tracer 1μM): 1.31

CC(C)N(CC[C@H](c1ccccc1)c1cc(CCNC(=O)c2ccc(CNC(=O)CCc3ccc4n3[B-](F)(F)[N+]3=C(c5ccc[nH]5)C=CC3=C4)cc2)ccc1O)C(C)C [Tolterodine-BZ-NB590]
NanoBRET Fold Response ([1]; CCR6, tracer 0.1μM): 1.05 | NanoBRET Fold Response ([1]; CCR6, tracer 1μM): 1.03 | NanoBRET Fold Response ([2]; CXCR2, tracer 0.1μM): 0.99 | NanoBRET Fold Response ([2]; CXCR2, tracer 1μM): 1.06 | NanoBRET Fold Response ([3]; tracer 0.1μM): 1.02 | NanoBRET Fold Response ([3]; tracer 1μM): 1.03

O=C(CCOCCOCCOCCOCCNC(=O)CCc1ccc2n1[B-](F)(F)[N+]1=C(c3ccc[nH]3)C=CC1=C2)NCCCN1CCN(C2=Nc3ccccc3Oc3ccc(Cl)cc32)CC1 [Loxapine-a-2-NB590]
NanoBRET Fold Response ([1]; CCR6, tracer 0.1μM): 1.00 | NanoBRET Fold Response ([1]; CCR6, tracer 1μM): 0.97 | NanoBRET Fold Response ([2]; CXCR2, tracer 0.1μM): 1.06 | NanoBRET Fold Response ([2]; CXCR2, tracer 1μM): 0.98 | NanoBRET Fold Response ([3]; tracer 0.1μM): 1.01 | NanoBRET Fold Response ([3]; tracer 1μM): 1.07

CN1CCN(C2=Nc3cc(Cl)ccc3N(CC(=O)NCCOCCOCCOCCOCCNC(=O)CCc3ccc4n3[B-](F)(F)[N+]3=C(c5ccc[nH]5)C=CC3=C4)c3ccccc32)CC1 [Clozapine-c-2-NB590]
NanoBRET Fold Response ([1]; CCR6, 0.1μM tracer): 0.99 | NanoBRET Fold Response ([1]; CCR6, 1μM tracer): 0.91 | NanoBRET Fold Response ([2]; CXCR2, 0.1μM tracer): 1.03 | NanoBRET Fold Response ([2]; CXCR2, 1μM tracer): 0.92 | NanoBRET Fold Response ([3]; 0.1μM tracer): 0.97 | NanoBRET Fold Response ([3]; 1μM tracer): 1.07

CN(C)CCC=C1c2ccccc2CCc2ccc(C(=O)NCCNC(=O)CCOCCOCCOCCOCCNC(=O)CCc3ccc4n3[B-](F)(F)[N+]3=C(c5ccc[nH]5)C=CC3=C4)cc21 [Amitriptyline-a-2-NB590]
NanoBRET Fold Response ([1]; tracer at 0.1μM): 0.96 | NanoBRET Fold Response ([1]; tracer at 1μM): 0.94 | NanoBRET Fold Response ([2]; tracer at 0.1μM): 0.99 | NanoBRET Fold Response ([2]; tracer at 1μM): 1.00

Cc1nc2n(c(=O)c1CCN1CCC(c3noc4cc(F)ccc34)CC1)CCCC2OC(=O)NCCOCCOCCOCCOCCNC(=O)CCc1ccc2n1[B-](F)(F)[N+]1=C(c3ccc[nH]3)C=CC1=C2 (stereo not drawn) [Risperidone-2-NB590]
NanoBRET Fold Response ([1]; CCR6, tracer 0.1μM): 1.07 | NanoBRET Fold Response ([1]; CCR6, tracer 1μM): 0.91 | NanoBRET Fold Response ([2]; CXCR2, tracer 0.1μM): 1.09 | NanoBRET Fold Response ([2]; CXCR2, tracer 1μM): 0.99 | NanoBRET Fold Response ([3]; tracer 0.1μM): 1.00 | NanoBRET Fold Response ([3]; tracer 1μM): 1.04

CN(CCC=C1c2ccccc2CCc2ccccc21)C(=O)CCOCCOCCOCCOCCNC(=O)CCc1ccc2n1[B-](F)(F)[N+]1=C(c3ccc[nH]3)C=CC1=C2 [Amitriptyline-e-2-NB590]
NanoBRET Fold Response ([1]; tracer at 1μM): 1.00 | NanoBRET Fold Response ([2]; tracer at 1μM): 1.07
